# From ChEMBL document CHEMBL4184320, “Optimization of Selective Mitogen-Activated Protein Kinase Interacting Kinases 1 and 2 Inhibitors for the Treatment of Blast Crisis Leukemia” (J Med Chem, 2018)
# Biological target: Tyrosine-protein kinase ABL1 (Homo sapiens) (UniProt P00519)
# Experiment: Inhibition of human ABL1 (S229 to K512 residues) expressed in mammalian expression system at 1 uM by KINOMEscan assay relative to control
# Conditions: not given
row,inhibition [%],SMILES
1,> 99,Nc1ncnc2[nH]nc(Nc3ccc(F)cc3)c12

# Tested on: not listed separately
# Experiment: Permeability of the compound by PAMPA
# Format: ADME
# Conditions: read-out: permeability
row,SMILES,Papp [×10⁻⁶ cm/s]
1,N#Cc1ccc(-c2cnc3cnc(-c4ccc(C(=O)N5CCOCC5)cc4)cn23)cc1,43.1
2,CN1CCN(C(=O)c2ccc(-c3ccc4ncc(-c5ccc(C#N)cc5)n4c3)cc2)CC1,81.9

# Further lines, results first:
row,Papp [×10⁻⁶ cm/s],SMILES
1,33.2,CN1CCN(C(=O)c2ccc(-c3cn4c(-c5cccc(O)c5)cnc4cn3)cc2)CC1
2,71.3,CN1CCN(C(=O)c2ccc(-c3cn4c(-c5ccc(Cl)cc5)cnc4cn3)cc2)CC1
3,22.7,NC(=O)c1ccc(-c2cn3c(-c4ccc(O)cc4)cnc3cn2)cc1

# Tested on: not listed separately
# Experiment: Apparent permeability of the compound across apical side to basolateral side in human Caco2 cells by LC-MS/MS analysis
# Format: ADME, cell-based
# Conditions: Caco-2
row,Papp A→B [×10⁻⁶ cm/s],SMILES
1,17.9,N#Cc1ccc(-c2cnc3cnc(-c4ccc(C(=O)N5CCOCC5)cc4)cn23)cc1
2,5.43,CN1CCN(C(=O)c2ccc(-c3ccc4ncc(-c5ccc(C#N)cc5)n4c3)cc2)CC1

# Tested on: not listed separately
# Experiment: in vitro
# Conditions: human, liver microsomes
# Description: Half life in human liver microsomes at 1 uM in presence of NADPH by LC-MS/MS analysis
row,half-life at 1 µM [min],SMILES
1,60,NC(=O)c1ccc(-c2cn3c(-c4ccc(O)cc4)cnc3cn2)cc1
2,> 60,N#Cc1ccc(-c2cnc3cnc(-c4ccc(C(=O)N5CCOCC5)cc4)cn23)cc1
3,20,CN1CCN(C(=O)c2ccc(-c3ccc4ncc(-c5ccc(C#N)cc5)n4c3)cc2)CC1

# Tested on: not listed separately
# Experiment: in vitro
# Conditions: mouse, liver microsomes
# Description: Half life in mouse liver microsomes at 1 uM in presence of NADPH by LC-MS/MS analysis
row,half-life at 1 µM [min],SMILES
1,46,NC(=O)c1ccc(-c2cn3c(-c4ccc(O)cc4)cnc3cn2)cc1
2,> 60,N#Cc1ccc(-c2cnc3cnc(-c4ccc(C(=O)N5CCOCC5)cc4)cn23)cc1
3,11,CN1CCN(C(=O)c2ccc(-c3ccc4ncc(-c5ccc(C#N)cc5)n4c3)cc2)CC1

# Biological target: Dual specificity mitogen-activated protein kinase kinase; MEK1/2 (Homo sapiens) (UniProt P36507+Q02750)
# Experiment: Inhibition of MEK (unknown origin) at 1 uM by KINOMEscan assay relative to control
# Format: protein assay
# Conditions: not given
row,inhibition [%],SMILES
1,> 99,Nc1ncnc2[nH]nc(Nc3ccc(F)cc3)c12

# Biological target: MAP kinase-interacting serine/threonine-protein kinase 2 (Homo sapiens, UniProt Q9HBH9)
# Experiment: not given
# Conditions: not given
# Sequence of MAP kinase-interacting serine/threonine-protein kinase 2 (Q9HBH9 whole entry): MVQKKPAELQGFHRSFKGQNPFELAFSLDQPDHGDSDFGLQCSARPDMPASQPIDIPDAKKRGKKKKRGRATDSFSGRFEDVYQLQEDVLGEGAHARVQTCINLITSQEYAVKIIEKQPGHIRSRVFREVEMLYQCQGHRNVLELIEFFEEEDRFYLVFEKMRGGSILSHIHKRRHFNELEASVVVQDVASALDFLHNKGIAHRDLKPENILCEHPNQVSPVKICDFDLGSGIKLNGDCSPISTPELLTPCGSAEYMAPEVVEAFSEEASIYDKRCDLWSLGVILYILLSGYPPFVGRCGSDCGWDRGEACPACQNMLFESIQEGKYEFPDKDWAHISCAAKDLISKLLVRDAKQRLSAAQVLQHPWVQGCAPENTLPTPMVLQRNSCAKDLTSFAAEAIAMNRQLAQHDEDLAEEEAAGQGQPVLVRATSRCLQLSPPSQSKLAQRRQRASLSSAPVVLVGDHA
row,SMILES,IC50 [nM]
1,N#Cc1ccc(-c2cnc3cnc(-c4ccc(C(=O)N5CCOCC5)cc4)cn23)cc1,454
2,CN1CCN(C(=O)c2ccc(-c3ccc4ncc(-c5ccc(C#N)cc5)n4c3)cc2)CC1,72

# Now from value to compound:
row,IC50 [nM],SMILES
1,742,CN1CCN(C(=O)c2ccc(-c3cn4c(-c5cccc(O)c5)cnc4cn3)cc2)CC1
2,217,CN1CCN(C(=O)c2ccc(-c3cn4c(-c5ccc(Cl)cc5)cnc4cn3)cc2)CC1
3,193,NC(=O)c1ccc(-c2cn3c(-c4ccc(O)cc4)cnc3cn2)cc1

# Biological target: Cytochrome P450 2D6 (Homo sapiens, UniProt P10635)
# Experiment: Inhibition of CYP2D6 in human liver microsomes using dextromethorphan as substrate preincubated for 5 mins followed by NADPH addition by LC-MS/MS analysis
# Format: ADME
# Conditions: not given
# Sequence of Cytochrome P450 2D6 (P10635 whole entry): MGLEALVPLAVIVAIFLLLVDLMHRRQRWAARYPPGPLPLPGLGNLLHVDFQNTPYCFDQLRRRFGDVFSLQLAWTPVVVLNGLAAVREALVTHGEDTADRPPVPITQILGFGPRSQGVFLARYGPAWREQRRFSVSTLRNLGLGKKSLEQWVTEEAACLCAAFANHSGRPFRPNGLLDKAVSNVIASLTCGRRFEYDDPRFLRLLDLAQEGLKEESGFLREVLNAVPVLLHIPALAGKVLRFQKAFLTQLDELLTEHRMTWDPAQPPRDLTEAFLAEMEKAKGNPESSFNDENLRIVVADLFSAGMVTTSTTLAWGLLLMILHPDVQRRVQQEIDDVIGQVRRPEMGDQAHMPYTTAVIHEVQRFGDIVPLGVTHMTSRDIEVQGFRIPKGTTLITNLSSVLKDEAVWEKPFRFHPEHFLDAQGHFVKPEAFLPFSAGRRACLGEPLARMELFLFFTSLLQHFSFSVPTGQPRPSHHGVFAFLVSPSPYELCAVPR
row,IC50 [nM],SMILES
1,> 20000,NC(=O)c1ccc(-c2cn3c(-c4ccc(O)cc4)cnc3cn2)cc1
2,> 20000,N#Cc1ccc(-c2cnc3cnc(-c4ccc(C(=O)N5CCOCC5)cc4)cn23)cc1
3,> 20000,CN1CCN(C(=O)c2ccc(-c3ccc4ncc(-c5ccc(C#N)cc5)n4c3)cc2)CC1

# Biological target: Dual specificity mitogen-activated protein kinase kinase 1 (Homo sapiens) (UniProt Q02750)
# Experiment: Inhibition of human MEK1 (M1 to V393 residues) expressed in mammalian expression system at 1 uM by KINOMEscan assay relative to control
# Conditions: not given
# Sequence of Dual specificity mitogen-activated protein kinase kinase 1 (Homo sapiens) (Q02750 whole entry, the tested form may be a part): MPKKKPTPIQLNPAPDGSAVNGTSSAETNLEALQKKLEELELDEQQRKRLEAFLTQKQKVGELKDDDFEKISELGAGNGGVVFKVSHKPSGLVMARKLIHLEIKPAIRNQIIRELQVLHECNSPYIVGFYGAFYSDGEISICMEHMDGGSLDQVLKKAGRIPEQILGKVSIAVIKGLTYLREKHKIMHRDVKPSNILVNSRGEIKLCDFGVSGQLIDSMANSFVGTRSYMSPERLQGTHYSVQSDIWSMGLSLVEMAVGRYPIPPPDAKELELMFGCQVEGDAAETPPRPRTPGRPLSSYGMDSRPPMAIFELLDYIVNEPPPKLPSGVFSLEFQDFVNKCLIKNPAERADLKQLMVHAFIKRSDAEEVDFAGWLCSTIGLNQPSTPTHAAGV
row,inhibition [%],SMILES
1,> 99,Nc1ncnc2[nH]nc(Nc3ccc(F)cc3)c12

# Biological target: Cytochrome P450 3A4 (Homo sapiens, UniProt P08684)
# Experiment: not given
# Conditions: not given
# Sequence of Cytochrome P450 3A4 (P08684 whole entry): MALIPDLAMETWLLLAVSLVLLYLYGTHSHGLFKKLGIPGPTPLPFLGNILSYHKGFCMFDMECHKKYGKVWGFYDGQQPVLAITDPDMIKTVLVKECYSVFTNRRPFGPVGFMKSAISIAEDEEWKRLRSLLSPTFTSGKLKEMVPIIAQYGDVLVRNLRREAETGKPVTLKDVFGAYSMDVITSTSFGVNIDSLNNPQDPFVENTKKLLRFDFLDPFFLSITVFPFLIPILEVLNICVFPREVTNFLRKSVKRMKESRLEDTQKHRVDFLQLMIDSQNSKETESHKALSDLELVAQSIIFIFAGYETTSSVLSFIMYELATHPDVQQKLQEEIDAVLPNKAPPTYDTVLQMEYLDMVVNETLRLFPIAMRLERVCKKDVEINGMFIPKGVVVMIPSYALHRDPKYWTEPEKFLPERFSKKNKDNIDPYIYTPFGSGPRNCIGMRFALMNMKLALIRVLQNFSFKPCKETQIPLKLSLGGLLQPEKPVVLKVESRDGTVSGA
row,IC50 [nM],SMILES
1,> 20000,NC(=O)c1ccc(-c2cn3c(-c4ccc(O)cc4)cnc3cn2)cc1
2,> 20000,N#Cc1ccc(-c2cnc3cnc(-c4ccc(C(=O)N5CCOCC5)cc4)cn23)cc1
3,3900,CN1CCN(C(=O)c2ccc(-c3ccc4ncc(-c5ccc(C#N)cc5)n4c3)cc2)CC1

# Biological target: MAP kinase-interacting serine/threonine-protein kinase 1/2 (Homo sapiens, UniProt Q9HBH9+Q9BUB5)
# Experiment: Inhibition of MNK1/2 in human HeLa cells assessed as decrease in eIF4E phosphorylation at Ser209 after 2 hrs by AlphaScreen assay
# Format: cell-based
# Conditions: not given
row,SMILES,IC50 [nM]
1,N#Cc1ccc(-c2cnc3cnc(-c4ccc(C(=O)N5CCOCC5)cc4)cn23)cc1,748
2,CN1CCN(C(=O)c2ccc(-c3ccc4ncc(-c5ccc(C#N)cc5)n4c3)cc2)CC1,229

# Further lines, results first:
row,IC50 [nM],SMILES
1,1330,CN1CCN(C(=O)c2ccc(-c3cn4c(-c5cccc(O)c5)cnc4cn3)cc2)CC1
2,759,CN1CCN(C(=O)c2ccc(-c3cn4c(-c5ccc(Cl)cc5)cnc4cn3)cc2)CC1
3,1080,NC(=O)c1ccc(-c2cn3c(-c4ccc(O)cc4)cnc3cn2)cc1

# Tested on: not listed separately
# Experiment: Thermodynamic solubility of the compound at pH 4 to 7.4 pION buffer after 18 hrs by UV spectrophotometric analysis
# Format: physicochemical
# Conditions: read-out: Therm_solubility
row,SMILES,solubility thermodynamic at 18 h [µg/mL]
1,N#Cc1ccc(-c2cnc3cnc(-c4ccc(C(=O)N5CCOCC5)cc4)cn23)cc1,11.1
2,CN1CCN(C(=O)c2ccc(-c3ccc4ncc(-c5ccc(C#N)cc5)n4c3)cc2)CC1,137

# Second part, the compound after the results:
row,solubility thermodynamic at 18 h [µg/mL],SMILES
1,116,CN1CCN(C(=O)c2ccc(-c3cn4c(-c5cccc(O)c5)cnc4cn3)cc2)CC1
2,118,CN1CCN(C(=O)c2ccc(-c3cn4c(-c5ccc(Cl)cc5)cnc4cn3)cc2)CC1

# Tested on: not listed separately
# Experiment: Octanol-phosphate buffer partition coefficient, logD of compound at pH 7.4 by HPLC-UV analysis
# Format: physicochemical
# Conditions: not given
row,SMILES,logD
1,N#Cc1ccc(-c2cnc3cnc(-c4ccc(C(=O)N5CCOCC5)cc4)cn23)cc1,1.77
2,CN1CCN(C(=O)c2ccc(-c3ccc4ncc(-c5ccc(C#N)cc5)n4c3)cc2)CC1,2.48

# The next lines start with the values.
row,logD,SMILES
1,2.31,CN1CCN(C(=O)c2ccc(-c3cn4c(-c5cccc(O)c5)cnc4cn3)cc2)CC1
2,2.96,CN1CCN(C(=O)c2ccc(-c3cn4c(-c5ccc(Cl)cc5)cnc4cn3)cc2)CC1
3,2.03,NC(=O)c1ccc(-c2cn3c(-c4ccc(O)cc4)cnc3cn2)cc1

# Biological target: Proto-oncogene tyrosine-protein kinase receptor Ret (Homo sapiens) (UniProt P07949)
# Experiment: Inhibition of human RET (E713 to D1014 residues) expressed in bacterial expression system at 1 uM by KINOMEscan assay relative to control
# Conditions: not given
# Sequence of Proto-oncogene tyrosine-protein kinase receptor Ret (Homo sapiens) (P07949 whole entry, the tested form may be a part): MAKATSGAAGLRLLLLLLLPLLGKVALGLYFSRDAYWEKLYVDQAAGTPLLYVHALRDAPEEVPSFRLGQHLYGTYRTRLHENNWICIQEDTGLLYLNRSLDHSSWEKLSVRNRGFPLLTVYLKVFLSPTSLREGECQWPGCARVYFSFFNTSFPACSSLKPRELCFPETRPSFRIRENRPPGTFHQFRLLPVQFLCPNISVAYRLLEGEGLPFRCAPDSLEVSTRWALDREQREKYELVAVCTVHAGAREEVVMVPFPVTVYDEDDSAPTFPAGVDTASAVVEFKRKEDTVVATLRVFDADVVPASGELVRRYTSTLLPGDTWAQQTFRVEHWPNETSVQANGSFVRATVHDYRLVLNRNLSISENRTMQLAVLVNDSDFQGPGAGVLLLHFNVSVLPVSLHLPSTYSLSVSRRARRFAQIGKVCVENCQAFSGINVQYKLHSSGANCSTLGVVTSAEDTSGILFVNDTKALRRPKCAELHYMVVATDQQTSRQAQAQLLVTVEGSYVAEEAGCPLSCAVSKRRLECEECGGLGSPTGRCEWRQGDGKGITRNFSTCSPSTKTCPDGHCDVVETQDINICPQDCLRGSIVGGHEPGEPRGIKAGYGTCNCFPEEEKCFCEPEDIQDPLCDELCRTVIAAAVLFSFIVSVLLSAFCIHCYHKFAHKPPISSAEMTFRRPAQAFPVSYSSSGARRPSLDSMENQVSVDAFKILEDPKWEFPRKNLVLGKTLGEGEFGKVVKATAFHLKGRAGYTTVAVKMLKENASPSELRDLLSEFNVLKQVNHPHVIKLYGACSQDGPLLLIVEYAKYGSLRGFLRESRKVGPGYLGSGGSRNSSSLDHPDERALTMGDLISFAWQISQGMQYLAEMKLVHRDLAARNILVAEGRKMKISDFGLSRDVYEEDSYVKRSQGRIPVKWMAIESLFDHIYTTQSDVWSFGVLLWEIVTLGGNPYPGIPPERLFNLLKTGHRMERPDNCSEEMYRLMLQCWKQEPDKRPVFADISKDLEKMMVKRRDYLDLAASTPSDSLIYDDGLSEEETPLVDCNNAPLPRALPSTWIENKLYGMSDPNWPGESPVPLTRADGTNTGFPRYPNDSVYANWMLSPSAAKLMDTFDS
row,inhibition [%],SMILES
1,> 99,Nc1ncnc2[nH]nc(Nc3ccc(F)cc3)c12

# Tested on: not listed separately
# Experiment: Protein binding in mouse plasma at […] after 5 hrs by LC-MS/MS analysis
# Format: ADME, cell-free
# Conditions: read-out: PPB (converted)
row,fraction unbound at 5 h,SMILES
1,0.0967,CN1CCN(C(=O)c2ccc(-c3ccc4ncc(-c5ccc(C#N)cc5)n4c3)cc2)CC1

# Tested on: Tyrosine-protein kinase ABL1 (Homo sapiens), P00519 [E255K]
# Experiment: Inhibition of human ABL1 E255K mutant (S229 to K512 residues) expressed in mammalian expression system at 1 uM by KINOMEscan assay relative to control
# Conditions: not given
# Sequence of Tyrosine-protein kinase ABL1 (Homo sapiens), P00519 [E255K] (P00519 whole entry E255K, the tested form may be a part): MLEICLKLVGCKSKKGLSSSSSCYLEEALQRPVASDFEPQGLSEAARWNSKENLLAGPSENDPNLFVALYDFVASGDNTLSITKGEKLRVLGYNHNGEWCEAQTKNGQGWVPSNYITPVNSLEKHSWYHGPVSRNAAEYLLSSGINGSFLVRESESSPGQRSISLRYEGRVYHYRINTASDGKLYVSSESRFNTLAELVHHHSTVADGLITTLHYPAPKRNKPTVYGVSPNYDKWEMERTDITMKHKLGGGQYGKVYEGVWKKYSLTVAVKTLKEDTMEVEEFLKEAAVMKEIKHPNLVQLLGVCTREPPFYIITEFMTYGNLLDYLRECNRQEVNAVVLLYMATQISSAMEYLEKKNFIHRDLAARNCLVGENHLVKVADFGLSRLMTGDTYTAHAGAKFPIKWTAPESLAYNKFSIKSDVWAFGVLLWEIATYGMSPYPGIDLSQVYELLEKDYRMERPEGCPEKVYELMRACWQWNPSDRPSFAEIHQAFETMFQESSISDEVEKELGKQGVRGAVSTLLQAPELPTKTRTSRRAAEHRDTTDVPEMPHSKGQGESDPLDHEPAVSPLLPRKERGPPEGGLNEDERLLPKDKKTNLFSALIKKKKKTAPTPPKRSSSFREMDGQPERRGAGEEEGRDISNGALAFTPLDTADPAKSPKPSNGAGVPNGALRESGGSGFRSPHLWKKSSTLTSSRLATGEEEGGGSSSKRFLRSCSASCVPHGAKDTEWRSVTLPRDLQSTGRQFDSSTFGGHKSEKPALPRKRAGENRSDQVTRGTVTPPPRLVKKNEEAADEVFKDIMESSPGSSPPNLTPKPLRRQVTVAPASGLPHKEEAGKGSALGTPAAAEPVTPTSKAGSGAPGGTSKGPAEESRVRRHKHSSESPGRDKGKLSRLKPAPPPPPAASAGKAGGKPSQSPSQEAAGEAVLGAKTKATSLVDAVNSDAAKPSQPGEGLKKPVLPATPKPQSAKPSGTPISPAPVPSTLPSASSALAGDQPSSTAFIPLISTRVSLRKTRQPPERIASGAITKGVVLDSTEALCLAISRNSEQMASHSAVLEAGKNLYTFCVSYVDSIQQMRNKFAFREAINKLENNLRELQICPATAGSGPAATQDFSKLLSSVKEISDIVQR
row,inhibition [%],SMILES
1,> 99,Nc1ncnc2[nH]nc(Nc3ccc(F)cc3)c12

# Tested on: not listed separately
# Experiment: Protein binding in human plasma at […] after 5 hrs by LC-MS/MS analysis
# Format: ADME, cell-free
# Conditions: read-out: PPB (converted)
row,fraction unbound at 5 h,SMILES
1,0.003,CN1CCN(C(=O)c2ccc(-c3ccc4ncc(-c5ccc(C#N)cc5)n4c3)cc2)CC1

# Biological target: Dual specificity mitogen-activated protein kinase kinase 2 (Homo sapiens) (UniProt P36507)
# Experiment: Inhibition of human MEK2 (M1 to V400 residues) expressed in mammalian expression system at 1 uM by KINOMEscan assay relative to control
# Conditions: not given
# Sequence of Dual specificity mitogen-activated protein kinase kinase 2 (Homo sapiens) (P36507 whole entry, the tested form may be a part): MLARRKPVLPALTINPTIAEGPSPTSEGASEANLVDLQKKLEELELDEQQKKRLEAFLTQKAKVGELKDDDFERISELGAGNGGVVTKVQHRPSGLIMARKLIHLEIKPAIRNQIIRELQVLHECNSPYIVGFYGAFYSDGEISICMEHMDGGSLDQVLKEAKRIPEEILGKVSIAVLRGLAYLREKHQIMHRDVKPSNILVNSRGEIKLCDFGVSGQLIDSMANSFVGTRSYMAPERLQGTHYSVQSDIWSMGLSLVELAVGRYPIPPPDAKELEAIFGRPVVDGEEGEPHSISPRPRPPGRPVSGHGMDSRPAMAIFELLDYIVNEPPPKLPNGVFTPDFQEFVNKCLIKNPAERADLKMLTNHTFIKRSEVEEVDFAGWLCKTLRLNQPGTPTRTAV
row,inhibition [%],SMILES
1,> 99,Nc1ncnc2[nH]nc(Nc3ccc(F)cc3)c12

# Biological target: MAP kinase-interacting serine/threonine-protein kinase 1 (Homo sapiens, UniProt Q9BUB5)
# Experiment: not given
# Conditions: not given
# Sequence of MAP kinase-interacting serine/threonine-protein kinase 1 (Q9BUB5 whole entry): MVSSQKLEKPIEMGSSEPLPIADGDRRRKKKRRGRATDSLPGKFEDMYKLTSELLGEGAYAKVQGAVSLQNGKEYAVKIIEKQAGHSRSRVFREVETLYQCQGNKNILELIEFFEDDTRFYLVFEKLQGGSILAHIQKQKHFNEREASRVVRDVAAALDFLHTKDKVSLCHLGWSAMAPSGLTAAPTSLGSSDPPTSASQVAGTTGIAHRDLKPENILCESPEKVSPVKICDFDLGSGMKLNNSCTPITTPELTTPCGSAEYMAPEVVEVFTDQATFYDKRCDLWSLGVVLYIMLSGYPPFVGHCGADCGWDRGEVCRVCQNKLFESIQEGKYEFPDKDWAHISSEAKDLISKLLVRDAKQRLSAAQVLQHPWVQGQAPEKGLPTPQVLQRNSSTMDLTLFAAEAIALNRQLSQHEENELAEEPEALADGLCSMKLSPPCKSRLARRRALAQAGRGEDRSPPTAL
row,SMILES,IC50 [nM]
1,N#Cc1ccc(-c2cnc3cnc(-c4ccc(C(=O)N5CCOCC5)cc4)cn23)cc1,570
2,CN1CCN(C(=O)c2ccc(-c3ccc4ncc(-c5ccc(C#N)cc5)n4c3)cc2)CC1,84

# Second part, the compound after the results:
row,IC50 [nM],SMILES
1,1300,CN1CCN(C(=O)c2ccc(-c3cn4c(-c5cccc(O)c5)cnc4cn3)cc2)CC1
2,331,CN1CCN(C(=O)c2ccc(-c3cn4c(-c5ccc(Cl)cc5)cnc4cn3)cc2)CC1
3,310,NC(=O)c1ccc(-c2cn3c(-c4ccc(O)cc4)cnc3cn2)cc1

# Tested on: not listed separately
# Experiment: Efflux ratio of apparent permeability in human Caco2 cells by LC-MS/MS analysis
# Format: ADME, cell-based
# Conditions: Caco-2
row,efflux ratio,SMILES
1,1.73,N#Cc1ccc(-c2cnc3cnc(-c4ccc(C(=O)N5CCOCC5)cc4)cn23)cc1
2,4.84,CN1CCN(C(=O)c2ccc(-c3ccc4ncc(-c5ccc(C#N)cc5)n4c3)cc2)CC1
